Results on 1 molecule are retold here after patent US20230414499A1, “SUBLINGUAL FILM DOSAGE OF RASAGILINE OR PHARMACEUTICALLY ACCEPTABLE SALT THEREOF, AND PREPARATION METHOD THEREFOR AND USE THEREOF” (priority 2020, published 2023).

For data set [1] the following is noted: after oral administration; cited from earlier work.
Data set [2] is described as follows: Pharmacokinetic test of Beagle dogs. Conditions: both sexes, dog, plasma, po, intragastric administration of solution, 2 mg, n=4, read-out: Absolute bioavailability. It is filed as in vivo.
Experimental: Sublingual film and intragastric administration: A two-period double crossover test was adopted, and the washout period was 1 week.
The dogs were fasted for 16 hours before administration and had free access to water. After 4 hours of administration, the dogs had free access to water, and food was administered. 2 mL of blood was collected from the forelimb or hindlimb vein before administration (0 h) and 0.033 h, 0.083 h, 0.167 h, 0.25 h, 0.333 h, 0.5 h, 0.75 h, 1 h, 1.5 h, 2 h, 3 h, 4 h, 6 h after administration, and placed in heparin sodium anticoagulation tubes. The collected blood samples were centrifuged immediately (1006×g, 10 min), separated to obtain the plasma and stored at −20° C.

The structures appear in SMILES notation. Counter-ions that a name gives are not always drawn. Like-named read-outs stand apart in the source and are kept apart here.

Regarding `C#CCN[C@@H]1CCc2ccccc21` [Rasagiline mesylate], the figures for the bioavailability entry in data set [1] and in data set [2] were “about 36%” and 11.8%, respectively.
